The values below come from patent US9834542B2, “LXR modulators” (BRISTOL-MYERS SQUIBB COMPANY, priority 2013, dated 2017).

The target of this assay is T1, LXRβ (Homo sapiens, UniProt P55055).
T1 construct: Co-transfection expression plasmids, comprising full-length LXRα (pCMX-h LXRα[…] or LXRβ (pCMX-hLXRβ)); expressed in transfected cells; host or cells: CV-1 African Green Monkey Kidney Cells
T1 sequence (P55055 1-460): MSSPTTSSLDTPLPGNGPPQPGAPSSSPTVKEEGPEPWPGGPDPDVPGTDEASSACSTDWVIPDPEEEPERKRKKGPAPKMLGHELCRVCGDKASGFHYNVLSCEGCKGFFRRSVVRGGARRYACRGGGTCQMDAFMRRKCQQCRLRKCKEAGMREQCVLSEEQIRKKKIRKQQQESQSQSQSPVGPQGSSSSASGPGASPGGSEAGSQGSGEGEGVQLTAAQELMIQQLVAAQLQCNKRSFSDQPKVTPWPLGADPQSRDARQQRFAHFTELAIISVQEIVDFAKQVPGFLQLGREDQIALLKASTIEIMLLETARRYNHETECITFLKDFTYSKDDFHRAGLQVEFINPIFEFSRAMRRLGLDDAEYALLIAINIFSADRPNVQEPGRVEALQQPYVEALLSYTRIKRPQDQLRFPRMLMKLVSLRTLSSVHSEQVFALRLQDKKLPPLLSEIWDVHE
T1 sequence (P19793 1-462 partner): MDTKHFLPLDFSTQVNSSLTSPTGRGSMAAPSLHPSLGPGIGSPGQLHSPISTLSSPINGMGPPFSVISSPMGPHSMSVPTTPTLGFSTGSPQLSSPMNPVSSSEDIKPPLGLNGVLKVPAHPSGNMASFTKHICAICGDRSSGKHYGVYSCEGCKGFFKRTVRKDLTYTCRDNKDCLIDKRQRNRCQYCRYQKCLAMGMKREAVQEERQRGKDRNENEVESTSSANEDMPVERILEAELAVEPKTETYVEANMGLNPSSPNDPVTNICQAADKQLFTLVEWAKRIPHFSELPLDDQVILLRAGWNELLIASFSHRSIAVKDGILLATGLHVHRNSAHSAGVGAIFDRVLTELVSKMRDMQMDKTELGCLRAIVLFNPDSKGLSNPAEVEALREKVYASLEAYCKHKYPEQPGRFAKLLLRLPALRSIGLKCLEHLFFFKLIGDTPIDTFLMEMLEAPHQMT
Description: Co-transfection assay (LXRE luciferase reporter), LXRβ. The note with it: for EC50: CV-1 cells transfected with pCMX-hLXRβ and LXREx1-Tk-Luciferase, 20 hours incubation; for Emax: LXRβ co-transfection, relative to high control 1-(2,4-difluorobenzyl)-2-oxo-6-(4-phenoxyphenyl)-4-(trifluoromethyl)-1,2-dihydropyridine-3-carbonitrile, read-out: % Efficacy. Type of assay: cell-based. The method, boiled down:
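Luciferase output from an LXRE-Tk reporter measured after 20 h, 37 °C compound exposure of transiently transfected CV-1 cells expressing human LXRβ with endogenous RXR. EC50 fitted from 11-point half-log dose responses (mean of ≥2 runs); % efficacy versus maximal response of the reference agonist.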
In general terms: A reporter such as luciferase makes a cellular process visible.

As usually defined, the EC50 is the midpoint of the concentration-response curve. The low end stands for greater potency, the high end for weaker potency. As to `Cc1nc(C(F)(F)F)cn1-c1cc(F)c(-c2cccc(S(C)(=O)=O)c2)cc1-n1nncc1-c1ccc(Cl)cc1Cl` [Example 101, 5-(2,4-dichlorophenyl)-1-{6-fluoro-3′-(methylsulfonyl)-4-[2-methyl-4-(trifluoromethyl)-1H-imidazol-1-yl]biphenyl-3-yl}-1H-1,2,3-triazole], the half-maximal effective concentration (EC50) came out at 782 nM and the Emax was 73%.
For `Cc1nc(C(F)(F)F)cn1-c1ccc(-c2cc(F)c(CO)c(S(C)(=O)=O)c2)c(Cl)c1-n1nncc1-c1ccc(Cl)cc1` [Example 102, {2′-chloro-3′-[5-(4-chlorophenyl)-1H-1,2,3-triazol-1-yl]-3-fluoro-5-(methylsulfonyl)-4′-[2-methyl-4-(trifluoromethyl)-1H-imidazol-1-yl]biphenyl-4-yl}methanol] the same measures were 1940 nM and 57%.
Take `Cc1nc(C(F)(F)F)cn1-c1ccc(-c2cc(F)c(CO)c(S(C)(=O)=O)c2)c(Cl)c1-n1nncc1-c1ccc(Cl)cc1Cl` [Example 103, {2′-chloro-3′-[5-(2,4-dichlorophenyl)-1H-1,2,3-triazol-1-yl]-3-fluoro-5-(methylsulfonyl)-4′-[2-methyl-4-(trifluoromethyl)-1H-imidazol-1-yl]biphenyl-4-yl}methanol]: the concentration for a half-maximal effect (EC50) came to 1240 nM and the Emax is 52%.
For `Cc1ccc(C(C)c2cnnn2-c2cc(-c3cccc(S(=O)(=O)N(C)C)c3)ccc2-n2cc(C(F)(F)F)nc2C)cc1` (centres unmarked) [Example 105, N,N-dimethyl-3′-{5-[1-(4-methylphenyl)ethyl]-1H-1,2,3-triazol-1-yl}-4′-[2-methyl-4-(trifluoromethyl)-1H-imidazol-1-yl]biphenyl-3-sulfonamide], in that order: 227 nM and 70%.
Consider `Cc1nc(C(F)(F)F)cn1-c1ccc(-c2cc(F)c(CO)c(S(C)(=O)=O)c2)cc1-n1nncc1C1(c2ccc(Cl)cc2)CC1` [Example 106, (3′-{5-[1-(4-chlorophenyl)cyclopropyl]-1H-1,2,3-triazol-1-yl}-3-fluoro-5-(methylsulfonyl)-4′-[2-methyl-4-(trifluoromethyl)-1H-imidazol-1-yl]biphenyl-4-yl)methanol], for which a half-maximal response (EC50) required 281 nM and the Emax was 48%.
For `CCS(=O)(=O)c1cccc(-c2ccc(-n3cc(C(F)(F)F)nc3C)c(-n3nncc3C(C)c3ccc(C)cc3)c2)c1` (centres unmarked) [Example 107, 1-{3′-(ethylsulfonyl)-4-[2-methyl-4-(trifluoromethyl)-1H-imidazol-1-yl]biphenyl-3-yl}-5-[1-(4-methylphenyl)ethyl]-1H-1,2,3-triazole] the same measures were 201 nM and 83%.
For `Cc1nc(C(F)(F)F)cn1-c1ccc(-c2cccc(S(C)(=O)=O)c2)cc1-n1nncc1C(C)c1ccc(Cl)cc1` (centres unmarked) [Example 108, 5-[1-(4-chlorophenyl)ethyl]-1-{3′-(methylsulfonyl)-4-[2-methyl-4-(trifluoromethyl)-1H-imidazol-1-yl]biphenyl-3-yl}-1H-1,2,3-triazole] the same measures were 149 nM and 62%.
For `Cc1nc(C(F)(F)F)cn1-c1ccc(-c2cc(F)c(CO)c(S(C)(=O)=O)c2)cc1-n1nncc1C(C)c1ccc(Cl)cc1` (centres unmarked) [Example 109, (3′-{5-[1-(4-chlorophenyl)ethyl]-1H-1,2,3-triazol-1-yl}-3-fluoro-5-(methylsulfonyl)-4′-[2-methyl-4-(trifluoromethyl)-1H-imidazol-1-yl]biphenyl-4-yl)methanol], in that order: 111 nM and 53%.
For `Cc1ccc(C(C)c2cnnn2-c2cc(-c3cc(Cl)c(CO)c(S(C)(=O)=O)c3)ccc2-n2cc(C(F)(F)F)nc2C)cc1` (centres unmarked) [Example 110, (3-chloro-3′-{5-[1-(4-methylphenyl)ethyl]-1H-1,2,3-triazol-1-yl}-5-(methylsulfonyl)-4′-[2-methyl-4-(trifluoromethyl)-1H-imidazol-1-yl]biphenyl-4-yl)methanol], a half-maximal effect (EC50) was put at 103 nM and the Emax came out at 77%.
Consider `Cc1ccc(C(C)c2cnnn2-c2cc(-c3cccc(S(C)(=O)=O)c3)ccc2-n2cc(C(F)(F)F)nc2C)cc1` (centres unmarked) [Example 111, 5-[1-(4-methylphenyl)ethyl]-1-{3′-(methylsulfonyl)-4-[2-methyl-4-(trifluoromethyl)-1H-imidazol-1-yl]biphenyl-3-yl}-1H-1,2,3-triazole], for which it took 930 nM to reach a half-maximal effect (EC50) and the Emax was 92%.
For `Cc1nc(C(F)(F)F)cn1-c1ccc(-c2cccc(S(C)(=O)=O)c2)cc1-n1nncc1C1(c2ccc(Cl)cc2)CC1` [Example 112, 5-[1-(4-chlorophenyl)cyclopropyl]-1-{3′-(methylsulfonyl)-4-[2-methyl-4-(trifluoromethyl)-1H-imidazol-1-yl]biphenyl-3-yl}-1H-1,2,3-triazole], in that order: 973 nM and 53%.
For `Cc1nc(C(F)(F)F)cn1-c1ccc(-c2cc(F)c(CO)c(S(C)(=O)=O)c2)cc1-n1nncc1Cc1ccc(Cl)cc1` [Example 113] the same measures were 524 nM and 72%.
For `Cc1nc(C(F)(F)F)cn1-c1ccc(-c2cccc(C(C)(C)C(N)=O)c2)cc1-n1nncc1Cc1cccc(Cl)c1` [Example 114, 2-(3′-{5-[(3-chlorophenyl)methyl]-1H-1,2,3-triazol-1-yl}-4′-[2-methyl-4-(trifluoromethyl)-1H-imidazol-1-yl]biphenyl-3-yl)-2-methylpropanamide], in that order: 940 nM and 98%.
As for `Cc1nc(C(F)(F)F)cn1-c1ccc(-c2cccc(S(C)(=O)=O)c2)cc1-n1nncc1Cc1ccc(Cl)c(Cl)c1` [Example 115, 5-[(3,4-dichlorophenyl)methyl]-1-{3′-(methylsulfonyl)-4-[2-methyl-4-(trifluoromethyl)-1H-imidazol-1-yl]biphenyl-3-yl}-1H-1,2,3-triazole], a half-maximal effect (EC50) was put at 920 nM and the Emax was determined as 79%.
For `Cc1nc(C(F)(F)F)cn1-c1ccc(-c2cccc(S(C)(=O)=O)c2)cc1-n1nncc1Cc1cccc(OC(F)(F)F)c1` [Example 116, 1-{3′-(methylsulfonyl)-4-[2-methyl-4-(trifluoromethyl)-1H-imidazol-1-yl]biphenyl-3-yl}-5-({3-[(trifluoromethyl)oxy]phen-yl}methyl)-1H-1,2,3-triazole] the same measures were 982 nM and 59%.
For `Cc1nc(C(F)(F)F)cn1-c1ccc(-c2cc(Cl)c(CO)c(S(C)(=O)=O)c2)cc1-n1nncc1Cc1cccc(Cl)c1` [Example 117, (3-chloro-3′-{5-[(3-chlorophenyl)methyl]-1H-1,2,3-triazol-1-yl}-5-(methylsulfonyl)-4′-[2-methyl-4-(trifluoromethyl)-1H-imidazol-1-yl]biphenyl-4-yl)methanol] the same measures were 1020 nM and 76%.
For `Cc1nc(C(F)(F)F)cn1-c1ccc(-c2cccc(S(C)(=O)=O)c2)cc1-n1nncc1Cc1ccc(OC(F)(F)F)cc1` [Example 118, 1-{3′-(methylsulfonyl)-4-[2-methyl-4-(trifluoromethyl)-1H-imidazol-1-yl]biphenyl-3-yl}-5-({4-[(trifluoromethyl)oxy]phen-yl}methyl)-1H-1,2,3-triazole], in that order: 1040 nM and 61%.
For the molecule `Cc1nc(C(F)(F)F)cn1-c1ccc(-c2cccc(C(C)(C)C(N)=O)c2)cc1-n1nncc1Cc1ccc(Cl)cc1` [Example 119, 2-(3′-{5-[(4-chlorophenyl)methyl]-1H-1,2,3-triazol-1-yl}-4′-[2-methyl-4-(trifluoromethyl)-1H-imidazol-1-yl]biphenyl-3-yl)-2-methylpropanamide], the EC50 worked out at 820 nM and the Emax was 85%.
For `Cc1nc(C(F)(F)F)cn1-c1ccc(-c2cc(F)c(CO)c(S(C)(=O)=O)c2)cc1-n1nncc1Cc1cccc(Cl)c1` [Example 120, (3′-{5-[(3-chlorophenyl)methyl]-1H-1,2,3-triazol-1-yl}-3-fluoro-5-(methylsulfonyl)-4′-[2-methyl-4-(trifluoromethyl)-1H-imidazol-1-yl]biphenyl-4-yl)methanol] the same measures were 795 nM and 91%.
